Experimental data: PMC7724630, “Improving the Stability of EGFR Inhibitor Cobalt(III) Prodrugs” (Inorganic Chemistry, 2020)
Read-outs that look alike come from different tables or passages of the source.

Experiments:
[1] = Cyclic voltammetry, cathodic peak potential Co(III)/Co(II); format: physicochemical; details: 10 mM phosphate buffer pH 7.40, 0.1 M KCl, scan rate 30 mV/s, 1.5 mM complex
Description: As the reduction process is crucial for the activation of cobalt(III)-based prodrug systems, the redox properties of the complexes were investigated to elucidate the effects of ligand methylation at different positions. Cyclic voltammetry measurements were performed in aqueous solution at pH 7.40 (10 mM phosphate buffer with 0.1 M KCl). […] Also, at a much higher scan speed of 1000 mV/s, the redox processes were still completely irreversible (Figure S5).
The compounds were dissolved in 10 mM phosphate buffer (pH 7.40), with 0.1 M KCl as the supporting electrolyte, to obtain a final concentration of 1.5 mM. Electrochemical experiments were conducted on an EG&G PARC 273A potentiostat/galvanostat with scan rates of 30 and 1000 mV/s at room temperature. Argon was bubbled through the solution before every measurement to remove oxygen. A three-electrode configuration cell was used with a glassy carbon electrode as the working electrode, which was polished before every measurement. The reference electrode was Ag/AgCl/KCl (3.5 M), and the auxiliary electrode was a platinum wire. Electrodes were conditioned regularly in 1 M H2SO4 for 5–10 cycles between voltage limits of −1.0 and 1.0 V at a scan rate of 100 mV/s. The system was calibrated with 1.5 mM K3[Fe(CN)6] for every experiment. Redox potentials measured relative to the Ag/AgCl/KCl (3.5 M) reference electrode were converted for potentials against NHE by the addition of 0.205 V. Measurements were repeated at least three times, and the mean values were calculated.

[2] = Interaction with low-molecular weight reducing agents (GSH, AA, NADH), UV-vis and fluorometric detection; format: physicochemical; details: 10 equiv of GSH, pH 7.40, 25 °C, 24 h
Description: The interaction of AA, GSH, and NADH at pH 7.40 (phosphate buffer) was investigated exemplarily for Co(acac)2L^+ and Co(Meacac)2L^+. The reaction was followed by ultraviolet–visible (UV–vis) and fluorometric detection at 25 °C with a 10-fold excess of reducing agent. Spectrofluorometry was proven to be an effective technique for monitoring this redox reaction, because the free EGFR inhibitor ligand L is highly fluorescent, while its cobalt(III) complex has negligible emission (vide supra).[17] Accordingly, an increase in the emission intensity is expected upon reduction and concomitant release of the free ligand. […] The same tendency was observed by UV–vis detection (data not shown). […] AA and NADH were also not able to reduce the two complexes even after 24 h. […]
Proton dissociation processes of PhEn were followed by UV–vis spectrophotometry and spectrofluorometry; samples were prepared in water containing 100 and 10 μM ligand, respectively, and 0.1 M KCl at 25 ± 0.2 °C. The proton dissociation constants and the UV–vis or fluorescence emission spectra of the individual species in the various protonation states were calculated by deconvolution of the spectra recorded in the pH range of 2.0–11.5 with PSEQUAD.[40] […] Batch samples contained 30 μM cobalt(III) complex and 10 equiv of AA, GSH, or NADH in PBS buffer (pH 7.40) and were used only once to record their UV–vis and fluorescence spectra. […]

[3] = tested on: EGFR phosphorylation at position Y1068 and ERK 1/2 in A431 cells; assay: Western blot of EGFR signaling (pEGFR Y1068, pERK 1/2) after EGF stimulation; format: cell-based, Human; details: A431 serum-starved, 2 h drug, EGF 50 ng/mL 10 min, normoxic
A431 cancer cells = assay: MTT-based cytotoxicity assay under different O2 levels; format: cell-based, Human; details: A431, 72 h
Serum stability, HPLC-MS = format: in vitro ADME; details: FCS, 37 °C, pH 7.4, 50 μM, 26 h
Description: The data presented in the previous sections indicate that even in the presence of low-molecular weight reducing agents the cobalt(III) complexes are completely stable. Therefore, we wanted to investigate if this is still true in a more elaborate biological environment like blood serum. To this end, the four EGFR inhibitor complexes were dissolved in 50 mM phosphate puffer and mixed in a 1:10 ratio with fetal calf serum (FCS; buffered with 150 mM phosphate buffer to keep a stable pH of 7.4) to a final concentration of 50 μM. The samples were incubated at 37 °C and after 0, 2, 6, 24, and 26 h extracted with acetonitrile and measured by HPLC-MS. […] The intact complex could be observed at 14.2 min (blue peak, m/z 614.0). The red signal at the same retention time (Figure 7A; 14.2 min, m/z 358.1) is a mass spectrometry artifact and belongs to the free ligand generated during ionization of the complex.
For serum stability measurements, 135 μL of FCS, buffered with 150 mM phosphate (Na2HPO4/NaH2PO4) to maintain a pH value of 7.4, was mixed with 15 μL of a 500 μM stock solution of the respective complex in 50 mM phosphate buffer to reach a final concentration of 50 μM. The samples were incubated at 37 °C. At different time points, to 20 μL of serum was added 40 μL of ACN. […] The supernatant was taken up with a syringe and directly measured via HPLC-MS.

EGFR (ErbB1) = EGFR (ErbB1) (Homo sapiens, UniProt P00533); assay: Cell-free kinase inhibition assay (ZLYTE, Select Screen); format: biochemical; details: 10 μM ATP (10-fold excess of ATP), 1% DMSO
[4] = design: method as in PMID 29567575; details: pH 7.40; cited from earlier work
[5] = previous work; cited from earlier work
[6] = tested on: EGFR phosphorylation at position Y1068 and ERK 1/2 in A431 cells; design: method as in PMID 25079700; details: A431, normoxic; cited from earlier work
[7] = 0.1% O2, read-out: IC50 hypoxia with 0.1% O2
[8] = 1% O2, read-out: IC50 hypoxia with 1% O2
[9] = 5% O2, read-out: IC50 hypoxia with 5% O2
[10] = 21% O2, read-out: IC50 normoxia

Chain of EGFR (ErbB1) (P00533 25-1210): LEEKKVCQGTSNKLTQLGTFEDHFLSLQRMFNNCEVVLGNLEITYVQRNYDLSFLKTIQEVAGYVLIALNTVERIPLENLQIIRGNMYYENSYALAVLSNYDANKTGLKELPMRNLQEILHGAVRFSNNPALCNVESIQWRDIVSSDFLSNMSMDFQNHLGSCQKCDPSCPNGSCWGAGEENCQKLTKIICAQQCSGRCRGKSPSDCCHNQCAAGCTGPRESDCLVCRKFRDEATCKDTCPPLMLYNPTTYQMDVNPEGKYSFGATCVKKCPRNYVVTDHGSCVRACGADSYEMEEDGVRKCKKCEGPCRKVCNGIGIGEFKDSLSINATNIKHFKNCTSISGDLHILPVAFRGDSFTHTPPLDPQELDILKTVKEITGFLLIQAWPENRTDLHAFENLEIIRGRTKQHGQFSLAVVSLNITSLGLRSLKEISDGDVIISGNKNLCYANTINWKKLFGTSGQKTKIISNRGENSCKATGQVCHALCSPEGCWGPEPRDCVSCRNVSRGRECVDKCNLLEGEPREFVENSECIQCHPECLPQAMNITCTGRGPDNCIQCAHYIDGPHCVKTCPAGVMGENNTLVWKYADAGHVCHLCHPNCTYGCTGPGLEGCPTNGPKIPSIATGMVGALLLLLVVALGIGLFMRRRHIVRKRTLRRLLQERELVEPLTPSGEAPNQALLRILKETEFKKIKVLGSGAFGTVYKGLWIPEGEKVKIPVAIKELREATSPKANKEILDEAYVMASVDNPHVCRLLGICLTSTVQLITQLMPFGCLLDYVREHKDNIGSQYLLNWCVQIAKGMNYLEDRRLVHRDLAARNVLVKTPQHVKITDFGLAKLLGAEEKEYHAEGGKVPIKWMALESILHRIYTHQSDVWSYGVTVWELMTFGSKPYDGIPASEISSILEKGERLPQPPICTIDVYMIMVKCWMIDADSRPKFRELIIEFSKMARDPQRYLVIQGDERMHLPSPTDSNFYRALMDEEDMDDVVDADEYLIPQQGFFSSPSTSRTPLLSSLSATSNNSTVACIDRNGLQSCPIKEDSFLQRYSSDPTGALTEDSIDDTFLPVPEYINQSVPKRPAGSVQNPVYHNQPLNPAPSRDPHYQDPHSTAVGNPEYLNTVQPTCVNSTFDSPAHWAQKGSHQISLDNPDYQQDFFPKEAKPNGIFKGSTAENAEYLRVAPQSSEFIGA

| reduction / release of free ligand L by GSH [2] | IC50 (EGFR (ErbB1)) [µM] | Structure (SMILES) | cathodic peak potential (Ec) vs NHE [1] [mV] | EGFR-inhibitory potential (pEGFR, pERK 1/2) [3] | IC50 (A431 cancer cells; [7]) [µM] | IC50 (A431 cancer cells; [8]) [µM] | IC50 (A431 cancer cells; [9]) [µM] | IC50 (A431 cancer cells; [10]) [µM] | intact compound after serum incubation (Serum stability, HPLC-MS) [%] | cobalt complex less active than the respective free ligand (A431 cancer cells; normoxia) [fold] | IC50 (A431 cancer cells; Homo sapiens, A-431, 0.1% O2, read-out: IC50 hypoxia with 0.1% O2) [µM] | IC50 (A431 cancer cells; Homo sapiens, A-431, 1% O2, read-out: IC50 hypoxia with 1% O2) [µM] | IC50 (A431 cancer cells; Homo sapiens, A-431, 5% O2, read-out: IC50 hypoxia with 5% O2) [µM] | IC50 (A431 cancer cells; Homo sapiens, A-431, 21% O2, read-out: IC50 normoxia) [µM] | log D7.40 [4] | pKa1 [5] | pKa2 [5] | EGFR-inhibitory potential (pEGFR, pERK 1/2) [6] |
| --- | --- | --- | --- | --- | --- | --- | --- | --- | --- | --- | --- | --- | --- | --- | --- | --- | --- | --- |
| practically no reduction process | – | CC(=O)[C-](C)C(C)=O.CC(=O)[C-](C)C(C)=O.NCCNc1ccc2ncnc(Nc3cccc(Br)c3)c2c1.[Cl-].[Co+3] [Co(Meacac)2L^+, Bis(3-methyl-2,4-pentanedionato) N^6-(2-Aminoethyl)-N^4-(3-bromophenyl)quinazoline-4,6-diamine Cobalt(III) Chloride] | 4 | distinctly weakened EGFR-inhibitory potential | 23.5 ± 5.1 | 25.3 ± 3.9 | 45.5 ± 2.7 | 51.9 ± 9.4 | – | – | – | – | – | – | – | – | – | – |
| – | – | CC(=O)[CH-]C(C)=O.CC(=O)[CH-]C(C)=O.CNCCNc1ccc2ncnc(Nc3cccc(Br)c3)c2c1.[Cl-].[Co+3] [Co(acac)2MeL^+, Bis(2,4-pentanedionato) N^4-(3-Bromophenyl)-N^6-[2-(methylamino)ethyl]quinazoline-4,6-diamine Cobalt(III) Chloride] | 120 | – | 11.9 ± 3.5 | 12.5 ± 3.1 | 13.5 ± 3.2 | 15.1 ± 1.6 | 50 | ~2 | – | – | – | – | – | – | – | – |
| – | 0.00029 | NCCNc1ccc2ncnc(Nc3cccc(Br)c3)c2c1 [L, N^6-(2-Aminoethyl)-N^4-(3-bromophenyl)quinazoline-4,6-diamine] | – | – | – | – | – | – | – | – | 13.7 ± 2.9 | 12.7 ± 2 | 12.8 ± 0.9 | 12 ± 1.3 | 1.86 ± 0.03[29] | < 1.0 | 9.21 | potent EGFR inhibition |
